Patent publication US12006328B2, “Thieno[2,3-d]pyrimidin-4-one derivatives as NMDAR modulators and uses related thereto” (Emory University, priority 2014, dated 2024)

How the values were obtained:
Assay type in all cases: cell-based
[1] = molecular target: GluN2D-containing NMDA receptors (Homo sapiens, UniProt O15399); test: Two-electrode voltage-clamp recordings from Xenopus laevis oocytes, GluN2D; conditions: for I10 μM/ICONTROL (mean ± SEM, %) Glu N2D: 10 μM test compound with glutamate 100 μM and glycine 30 μM, Tables 1-5; for I10 μM/ICONTROL (mean ± SEM, %) Glu N2D / maximal potentiation Glu N2D: percent of response without compound; for IC50 / maximal potentiation Glu N2D: Table 2; for IC50: glutamate 100 μM, glycine 30 μM, Hill fit, read-out: IC50 Glu N2D; for maximal potentiation Glu N2D: in brackets below IC50
GluN2D-containing NMDA receptors, sequence (O15399 28-1336, other chains not shown): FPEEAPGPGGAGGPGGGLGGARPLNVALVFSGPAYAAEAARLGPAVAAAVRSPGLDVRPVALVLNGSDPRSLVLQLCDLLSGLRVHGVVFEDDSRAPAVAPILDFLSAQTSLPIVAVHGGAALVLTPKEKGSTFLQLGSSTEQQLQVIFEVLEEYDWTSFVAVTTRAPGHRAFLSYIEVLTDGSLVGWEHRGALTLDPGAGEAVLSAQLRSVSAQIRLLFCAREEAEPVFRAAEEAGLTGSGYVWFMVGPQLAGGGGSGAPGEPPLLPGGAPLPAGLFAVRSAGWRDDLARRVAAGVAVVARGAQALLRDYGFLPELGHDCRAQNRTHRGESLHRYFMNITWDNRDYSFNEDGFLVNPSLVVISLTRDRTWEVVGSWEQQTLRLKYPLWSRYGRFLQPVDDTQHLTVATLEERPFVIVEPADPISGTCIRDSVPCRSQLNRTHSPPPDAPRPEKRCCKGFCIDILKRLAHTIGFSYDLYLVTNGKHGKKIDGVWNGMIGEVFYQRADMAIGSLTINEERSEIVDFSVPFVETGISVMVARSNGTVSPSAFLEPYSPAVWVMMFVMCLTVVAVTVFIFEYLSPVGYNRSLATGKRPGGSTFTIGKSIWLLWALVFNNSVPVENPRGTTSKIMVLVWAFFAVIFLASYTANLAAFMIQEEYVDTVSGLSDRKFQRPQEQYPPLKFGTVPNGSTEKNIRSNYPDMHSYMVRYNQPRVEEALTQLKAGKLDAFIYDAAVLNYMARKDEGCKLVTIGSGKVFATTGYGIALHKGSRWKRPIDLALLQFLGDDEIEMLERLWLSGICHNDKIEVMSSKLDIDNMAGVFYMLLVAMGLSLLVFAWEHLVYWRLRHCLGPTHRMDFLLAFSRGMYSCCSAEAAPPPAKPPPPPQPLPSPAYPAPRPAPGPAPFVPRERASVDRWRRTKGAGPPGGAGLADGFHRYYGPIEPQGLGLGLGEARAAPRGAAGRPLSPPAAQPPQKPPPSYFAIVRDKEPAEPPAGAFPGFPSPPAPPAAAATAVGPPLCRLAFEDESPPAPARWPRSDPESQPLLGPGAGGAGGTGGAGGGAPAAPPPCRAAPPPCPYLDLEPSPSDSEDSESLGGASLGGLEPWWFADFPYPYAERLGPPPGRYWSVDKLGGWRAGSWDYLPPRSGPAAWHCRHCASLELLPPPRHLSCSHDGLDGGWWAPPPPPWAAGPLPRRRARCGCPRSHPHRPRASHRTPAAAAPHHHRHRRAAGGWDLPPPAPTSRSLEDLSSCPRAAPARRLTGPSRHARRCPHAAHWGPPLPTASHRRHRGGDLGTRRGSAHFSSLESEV
Description: (§1) Xenopus laevis oocytes were injected with cRNA encoding the NMDA receptor subunits. Two to seven days after injection, two-electrode voltage-clamp recordings were performed. Extracellular solutions were made from a solutions containing (in mM) 90 NaCl, 3 KCl, 10 HEPES, 0.5 BaCl2, 0.01 EDTA (pH 7.4 with NaOH). Voltage and current electrodes were filled with 0.3 M and 3.0 M KCl, respectively.
(§2) Potency was determined by adding increasing concentrations of test compound to saturating concentrations of glutamate (100 μM) and glycine (30 μM), and the response amplitude measured. The response in the presence of each concentration of test compound plus agonists was expressed as a percent of the response in the absence of test compound.

[2] = molecular target: GluN2B-containing NMDA receptors (Homo sapiens, UniProt Q13224); test: Two-electrode voltage-clamp recordings from Xenopus laevis oocytes, GluN2B; conditions: for I10 μM/ICONTROL (mean ± SEM, %) Glu N2B: 10 μM test compound with glutamate 100 μM and glycine 30 μM, Tables 1-5; for I10 μM/ICONTROL (mean ± SEM, %) Glu N2B / maximal potentiation Glu N2B: percent of response without compound; for IC50 / maximal potentiation Glu N2B: Table 2; for IC50: glutamate 100 μM, glycine 30 μM, Hill fit, read-out: IC50 Glu N2B; for maximal potentiation Glu N2B: in brackets below IC50
GluN2B-containing NMDA receptors, sequence (Q13224 27-1484, other chains not shown): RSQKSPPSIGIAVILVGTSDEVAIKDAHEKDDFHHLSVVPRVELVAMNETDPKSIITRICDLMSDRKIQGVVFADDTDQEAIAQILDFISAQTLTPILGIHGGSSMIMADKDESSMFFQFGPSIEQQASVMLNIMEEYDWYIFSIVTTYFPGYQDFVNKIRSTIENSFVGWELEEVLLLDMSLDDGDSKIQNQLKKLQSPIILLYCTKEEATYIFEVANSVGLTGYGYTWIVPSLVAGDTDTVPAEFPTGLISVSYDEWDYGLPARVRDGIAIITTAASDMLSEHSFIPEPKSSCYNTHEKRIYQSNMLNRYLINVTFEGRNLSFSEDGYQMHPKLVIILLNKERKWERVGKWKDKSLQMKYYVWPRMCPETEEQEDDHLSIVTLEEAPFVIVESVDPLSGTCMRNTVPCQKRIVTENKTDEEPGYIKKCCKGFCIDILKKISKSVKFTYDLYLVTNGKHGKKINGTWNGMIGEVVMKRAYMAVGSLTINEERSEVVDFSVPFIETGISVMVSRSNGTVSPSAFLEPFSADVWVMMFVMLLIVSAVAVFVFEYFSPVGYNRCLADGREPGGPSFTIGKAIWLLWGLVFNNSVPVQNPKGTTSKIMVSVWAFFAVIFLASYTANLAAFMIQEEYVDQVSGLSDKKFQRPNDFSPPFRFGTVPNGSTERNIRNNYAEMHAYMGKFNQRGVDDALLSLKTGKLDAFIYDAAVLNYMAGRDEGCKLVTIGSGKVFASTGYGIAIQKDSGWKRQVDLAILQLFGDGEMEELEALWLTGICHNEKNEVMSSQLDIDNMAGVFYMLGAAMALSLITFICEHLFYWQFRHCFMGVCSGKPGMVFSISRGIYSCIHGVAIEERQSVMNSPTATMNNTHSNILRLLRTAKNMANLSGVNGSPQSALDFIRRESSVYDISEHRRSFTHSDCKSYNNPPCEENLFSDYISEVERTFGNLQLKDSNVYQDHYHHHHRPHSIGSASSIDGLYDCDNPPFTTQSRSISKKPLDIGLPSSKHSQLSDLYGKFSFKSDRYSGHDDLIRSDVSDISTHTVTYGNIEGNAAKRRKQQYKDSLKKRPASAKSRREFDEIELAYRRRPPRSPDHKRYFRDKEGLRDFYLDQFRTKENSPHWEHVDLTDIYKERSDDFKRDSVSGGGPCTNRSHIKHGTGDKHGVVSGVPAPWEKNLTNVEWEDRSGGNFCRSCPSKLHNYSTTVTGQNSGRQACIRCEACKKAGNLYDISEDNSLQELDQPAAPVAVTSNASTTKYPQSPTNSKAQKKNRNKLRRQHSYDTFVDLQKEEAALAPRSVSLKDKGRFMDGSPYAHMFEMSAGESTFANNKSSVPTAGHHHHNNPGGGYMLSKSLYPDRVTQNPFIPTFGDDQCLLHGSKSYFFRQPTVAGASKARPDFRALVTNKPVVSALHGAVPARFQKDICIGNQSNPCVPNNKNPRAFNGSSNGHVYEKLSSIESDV
Description: as §1, §2

[3] = molecular target: GluN2C-containing NMDA receptors (Homo sapiens, UniProt Q14957); test: Two-electrode voltage-clamp recordings from Xenopus laevis oocytes, GluN2C; conditions: for I10 μM/ICONTROL (mean ± SEM, %) Glu N2C: 10 μM test compound with glutamate 100 μM and glycine 30 μM, Tables 1-5; for I10 μM/ICONTROL (mean ± SEM, %) Glu N2C / maximal potentiation Glu N2C: percent of response without compound; for IC50 / maximal potentiation Glu N2C: Table 2; for IC50: glutamate 100 μM, glycine 30 μM, Hill fit, read-out: IC50 Glu N2C; for maximal potentiation Glu N2C: in brackets below IC50
GluN2C-containing NMDA receptors, sequence (Q14957 20-1233, other chains not shown): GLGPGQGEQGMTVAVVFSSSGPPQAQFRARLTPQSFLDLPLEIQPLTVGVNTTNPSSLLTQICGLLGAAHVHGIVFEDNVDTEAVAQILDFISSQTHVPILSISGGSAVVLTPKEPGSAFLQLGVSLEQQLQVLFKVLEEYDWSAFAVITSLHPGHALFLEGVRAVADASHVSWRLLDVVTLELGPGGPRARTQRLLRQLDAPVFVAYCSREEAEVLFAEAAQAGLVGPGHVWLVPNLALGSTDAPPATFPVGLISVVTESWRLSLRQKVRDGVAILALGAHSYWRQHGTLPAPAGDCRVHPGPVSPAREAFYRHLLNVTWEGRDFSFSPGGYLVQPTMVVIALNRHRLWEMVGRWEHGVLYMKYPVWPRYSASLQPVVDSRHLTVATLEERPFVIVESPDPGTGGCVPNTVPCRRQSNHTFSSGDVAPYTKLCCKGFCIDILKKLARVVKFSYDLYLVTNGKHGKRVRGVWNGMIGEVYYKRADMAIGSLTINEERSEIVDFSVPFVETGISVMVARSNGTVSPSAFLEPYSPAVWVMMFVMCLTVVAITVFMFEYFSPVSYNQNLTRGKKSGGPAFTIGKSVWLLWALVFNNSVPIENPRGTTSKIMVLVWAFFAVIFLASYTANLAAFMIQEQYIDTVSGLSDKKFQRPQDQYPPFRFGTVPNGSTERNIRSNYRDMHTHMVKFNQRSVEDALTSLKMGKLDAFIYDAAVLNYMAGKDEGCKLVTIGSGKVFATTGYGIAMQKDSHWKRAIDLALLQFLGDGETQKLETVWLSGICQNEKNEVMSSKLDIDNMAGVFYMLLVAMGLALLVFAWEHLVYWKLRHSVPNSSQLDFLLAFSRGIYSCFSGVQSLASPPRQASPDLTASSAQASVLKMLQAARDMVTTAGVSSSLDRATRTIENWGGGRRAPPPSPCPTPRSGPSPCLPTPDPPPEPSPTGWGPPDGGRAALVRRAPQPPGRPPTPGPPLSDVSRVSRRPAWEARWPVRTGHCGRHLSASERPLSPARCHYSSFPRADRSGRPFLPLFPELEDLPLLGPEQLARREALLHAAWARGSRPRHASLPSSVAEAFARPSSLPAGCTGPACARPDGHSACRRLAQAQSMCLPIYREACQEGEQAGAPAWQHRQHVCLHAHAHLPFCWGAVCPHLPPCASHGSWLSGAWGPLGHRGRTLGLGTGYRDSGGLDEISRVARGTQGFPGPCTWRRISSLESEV
Description: as §1, §2

| SMILES | I10 μM/ICONTROL (mean ± SEM, %) Glu N2D [1] [%] | I10 μM/ICONTROL (mean ± SEM, %) Glu N2B [2] [%] | I10 μM/ICONTROL (mean ± SEM, %) Glu N2C [3] [%] | IC50 [1] [µM] | maximal potentiation Glu N2D [1] | IC50 [3] [µM] | maximal potentiation Glu N2C [3] | IC50 [2] [µM] | maximal potentiation Glu N2B [2] |
| --- | --- | --- | --- | --- | --- | --- | --- | --- | --- |
| COC(=O)[C@@H]1CCCN1C(=O)Cn1cnc2sc(C)c(-c3ccc(Br)cc3)c2c1=O | 147 ± 12.7 | 109 ± 4.9 | 159 ± 9.5 | – | – | – | – | – | – |
| Cc1sc2ncn(Cc3cn(CCC4OCCCO4)nn3)c(=O)c2c1-c1cccc(Cl)c1 | 88 ± 3.4 | 89 ± 2.5 | 88 ± 0.5 | – | – | – | – | – | – |
| Cc1sc2ncn(Cc3cnnn3CCC3OCCCO3)c(=O)c2c1-c1cccc(Cl)c1 | 91 ± 1.3 | 89 ± 2.5 | 92 ± 0.8 | – | – | – | – | – | – |
| COCCn1cc(Cn2cnc3sc(C)c(-c4cccc(Cl)c4)c3c2=O)nn1 | 84 ± 3.4 | 99 ± 1.9 | 93 ± 2.2 | – | – | – | – | – | – |
| Cc1sc2ncn(CC(=O)N3CCCCC3)c(=O)c2c1-c1ccc(Br)c(Br)c1 [1 / 3,4-Br—Ph / Me / —Npiperidine] | 143 ± 3.2 | – | 168 ± 13.9 | 94 | (600) % | 15 | (300) % | – | – |
| Cc1sc2ncn(CC(=O)N3CCCCC3)c(=O)c2c1-c1cc(Br)cc(Br)c1 [1 / 3,5-Br—Ph / Me / —Npiperidine] | 179 ± 10.1 | – | 232 ± 14.4 | – | – | 4.3 | (233) % | – | – |
| Cc1sc2ncn(CC(=O)N3CCCCC3)c(=O)c2c1-c1cc(C(F)(F)F)cc(C(F)(F)F)c1 [1 / 3,5-CF3—Ph / Me / —Npiperidine] | – | – | – | – | – | 1.4 | (155) % | – | – |
| Cc1sc2ncn(CC(=O)c3cccs3)c(=O)c2c1-c1cccc(Cl)c1 [1 / 3-Cl—Ph / Me / 2-thiophene] | 137 ± 6.3 | 133 ± 3.9 | 125 ± 2.8 | 15 | (224) % | 19 | (293) % | 14 | (207) % |
| CCOC(=O)Cn1cnc2sc(C)c(-c3cccc(Cl)c3)c2c1=O [1 / 3-Cl—Ph / Me / OEt] | 136 ± 3.0 | 127 ± 4.6 | 141 ± 7.0 | 16 | (245) % | 26 | (390) % | 17 | (148) % |
| Cc1sc2ncn(CC(=O)O)c(=O)c2c1-c1cccc(Cl)c1 [1 / 3-Cl—Ph / Me / OH] | 89 ± 1.4 | 93 ± 1.2 | 93 ± 1.4 | – | – | – | – | – | – |
| Cc1sc2ncn(CC(=O)Oc3ccccc3)c(=O)c2c1-c1cccc(Cl)c1 [1 / 3-Cl—Ph / Me / OPh] | 89 ± 1.6 | 96 ± 2.6 | 110 ± 5.9 | – | – | – | – | – | – |
| CCSC(=O)Cn1cnc2sc(C)c(-c3cccc(Cl)c3)c2c1=O [1 / 3-Cl—Ph / Me / SEt] | 90 ± 1.3 | 95 ± 0.9 | 95 ± 2.8 | – | – | – | – | – | – |
| Cc1sc2ncn(CC(=O)SC(C)(C)C)c(=O)c2c1-c1cccc(Cl)c1 [1 / 3-Cl—Ph / Me / StBu] | 73 ± 2.6 | 92 ± 4.6 | 87 ± 4.0 | – | – | – | – | – | – |
| Cc1sc2ncn(CC(=O)c3ccc(Cl)cc3Cl)c(=O)c2c1-c1cccc(I)c1 [1 / 3-I—Ph / Me / 2,4-Cl—Ph] | 93 ± 1.8 | – | 96 ± 4.8 | – | – | – | – | – | – |
| Cc1sc2ncn(CC(=O)c3cccs3)c(=O)c2c1-c1cccc(I)c1 [1 / 3-I—Ph / Me / 2-thiophene] | 177 ± 7.0 | 129 ± 4.5 | 180 ± 10.7 | 11 | (262) % | 9.3 | (255) % | 7.7 | (147) % |
| COc1cccc(C(=O)Cn2cnc3sc(C)c(-c4cccc(I)c4)c3c2=O)c1 [1 / 3-I—Ph / Me / 3-OMe—Ph] | 99 ± 4.3 | 107 ± 3.0 | 107 ± 4.9 | – | – | – | – | – | – |
| COc1ccc(C(=O)Cn2cnc3sc(C)c(-c4cccc(I)c4)c3c2=O)cc1 [1 / 3-I—Ph / Me / 4-OMe—Ph] | 94 ± 1.1 | 84 ± 5.2 | 94 ± 1.94 | – | – | – | – | – | – |

| SMILES | I10 μM/ICONTROL (mean ± SEM, %) Glu N2D [1] [%] | I10 μM/ICONTROL (mean ± SEM, %) Glu N2B [2] [%] | I10 μM/ICONTROL (mean ± SEM, %) Glu N2C [3] [%] | IC50 [1] [µM] | maximal potentiation Glu N2D [1] | IC50 [3] [µM] | maximal potentiation Glu N2C [3] | IC50 [2] [µM] | maximal potentiation Glu N2B [2] |
| --- | --- | --- | --- | --- | --- | --- | --- | --- | --- |
| Cc1sc2ncn(CC(=O)C3CCCC3)c(=O)c2c1-c1cccc(I)c1 [1 / 3-I—Ph / Me / -cyclopentyl] | 133 ± 3.0 | – | 166 ± 9.5 | 14 | (191) % | 9.4 | (225) % | – | – |
| Cc1sc2ncn(CC(=O)OC(C)(C)C)c(=O)c2c1-c1cccc(I)c1 [1 / 3-I—Ph / Me / OtBu] | 94 ± 4.3 | 87 ± 3.9 | 101 ± 6.8 | – | – | – | – | – | – |
| Cc1sc2ncn(CC(=O)c3ccccc3)c(=O)c2c1-c1cccc(I)c1 [1 / 3-I—Ph / Me / Ph] | 133 ± 3.1 | 139 ± 3.9 | 161 ± 10.9 | 41 | (305) % | 15 | (273) % | 7.9 | (169) % |
| CON(C)C(=O)Cn1cnc2sc(C)c(-c3cccc(I)c3)c2c1=O [1 / 3-I—Ph / Me / —N(OMe)Me] | 119 ± 8.9 | – | 109 ± 4.9 | – | – | – | – | – | – |
| Cc1sc2ncn(CC(=O)N3CCCCC3)c(=O)c2c1-c1cccc(I)c1 [1 / 3-I—Ph / Me / —Npiperidine] | 124 ± 4.8 | – | 145 ± 11.4 | – | – | – | – | – | – |
| Cc1sc2ncn(CC(=O)N(C)C)c(=O)c2c1-c1ccc(Br)cc1 [1 / 4-Br—Ph / Me / —N(Me)2] | 105 ± 1.8 | 92 ± 1.7 | 109 ± 3.1 | – | – | – | – | – | – |
| CCOC(=O)CNC(=O)Cn1cnc2sc(C)c(-c3ccc(Br)cc3)c2c1=O [1 / 4-Br—Ph / Me / —NHCH2COOEt] | 104 ± 0.6 | 96 ± 2.1 | 104 ± 2.5 | – | – | – | – | – | – |
| Cc1sc2ncn(CC(=O)NCC(=O)O)c(=O)c2c1-c1ccc(Cl)cc1 [1 / 4-Cl—Ph / Me / —NHCH2COOH] | 93 ± 1.8 | 87 ± 1.3 | 105 ± 3.7 | – | – | – | – | – | – |
| Cc1sc2ncn(CC(=O)N3CCCCC3)c(=O)c2c1-c1ccc(Cl)cc1 [1 / 4-Cl—Ph / Me / —Npiperidine] | – | – | – | 52 | (163) % | 136 | (232) % | – | – |
| Cc1sc2ncn(CC(=O)N3CCC[C@H]3C(=O)O)c(=O)c2c1-c1ccc(Cl)cc1 [1 / 4-Cl—Ph / Me / —Nproline (S)] | 97 ± 1.9 | 89 ± 1.7 | 104 ± 2.3 | – | – | – | – | – | – |
| Cc1sc2ncn(CC(=O)N3CCCC3)c(=O)c2c1-c1ccc(Cl)cc1 [1 / 4-Cl—Ph / Me / —Npyrrolidine] | – | – | – | 23 | (381) % | 15 | (347) % | 11 | (223) % |
| Cc1ccc(-c2csc3ncn(CC(=O)N4CCC4)c(=O)c23)cc1 [1 / 4-Me—Ph / H / —Nazetidine] | – | – | – | 57 | (0) % | > 100 | – | – | – |
| CCOC(=O)CCn1cnc2sc(C)c(-c3cccc(Cl)c3)c2c1=O [2 / 3-Cl—Ph / Me / OEt] | 97 ± 1.6 | 107 ± 2.3 | 91 ± 2.5 | – | – | – | – | – | – |
| Cc1sc2ncn(CCC(=O)O)c(=O)c2c1-c1cccc(Cl)c1 [2 / 3-Cl—Ph / Me / OH] | 97 ± 1.1 | 99 ± 0.6 | 89 ± 6.2 | – | – | – | – | – | – |
| Cc1sc2ncn(CCC(=O)Oc3ccccc3)c(=O)c2c1-c1cccc(Cl)c1 [2 / 3-Cl—Ph / Me / OPh] | 88 ± 2.4 | 104 ± 3.6 | 91 ± 1.1 | – | – | – | – | – | – |
| Cc1sc2ncn(CCC(=O)N3CCCC3)c(=O)c2c1-c1cccc(Cl)c1 [2 / 3-Cl—Ph / Me / —Npyrrolidine] | 90 ± 1.7 | 95 ± 1.7 | 99 ± 5.0 | – | – | – | – | – | – |
| O=C(Cn1cnc2sc3c(c2c1=O)CCCC3)c1ccc(Cl)cc1Cl [2,4-Cl] | 97 ± 1.8 | 91 ± 3.6 | 106 ± 4.4 | – | – | – | – | – | – |
